Measured values taken from patent publication US20120264735A1 (priority 2009, published 2012).
pIC50: −log10 of the molar value.

Target: T1, c-Met kinase (recombinant c-Met) (Homo sapiens, UniProt P08581)
T1 construct: 0.27 nM recombinant c-Met
Assay: In vitro kinase assay I (homogeneous time-resolved fluorescence tyrosine kinase assay)
Format: biochemical
Procedure: The kinase activities of c-Met are measured using a modified version of the homogeneous-time-resolved tyrosine kinase assay described by Park et al. (1999, Anal. Biochem. 269:94-104).
The procedure for determining the potency of a compound to inhibit c-Met kinase comprises the following steps: • 1. Prepare 3-fold serial diluted compound solutions in 100% dimethyl sulfoxide (DMSO) at 20× of the desired final concentrations in a 384-well plate. • 2. Prepare a master reaction mix containing 6.67 mM MgCl2, 133.3 mM NaCl, 66.7 mM Tris-HCl (pH 7.4), 0.13 mg/ml BSA, 2.67 mM dithiothreitol, 0.27 nM recombinant c-Met and 666.7 nM biotinylated synthetic peptide substrate (biotin-ahx-EQEDEPEGDYFEWLE-CONH2) (SEQ.ID.NO.:1). • 3. In a black assay plate, add 1.5 μl of compound solution (or DMSO) and 22.5 μl of master reaction mix per well. Initiate the kinase reaction by adding 6 μl of 0.25 mM MgATP per well. Allow the reactions to proceed for 60 min at room temperature. The final conditions for the reaction are 0.2 nM c-Met, 0.5 μM substrate, 50 μM MgATP, 5 mM MgCl2, 100 mM NaCl, 2 mM DTT, 0.1 mg/ml BSA, 50 mM Tris (pH 7.4) and 5% DMSO. • 4. Stop the kinase reaction with 30 μl of Stop/Detection buffer containing 10 mM EDTA, 25 mM HEPES, 0.1% TRITON X-100, 0.750 nM Eu-chelate labeled anti-phosphotyrosine antibody PY20 (cat. #AD0067, PerkinElmer) and 50 μg/ml Streptavidin-allophycocyanin conjugate (cat. #PJ25S, Prozyme). • 5. Read HTRF signals on a Victor reader (PerkinElmer) in HTRF mode after 60-min incubation at room temperature in the dark. • 6. IC50 is determined by fitting the observed relationship between compound concentration and HTRF signal with a 4-parameter logistic equation. II. GTL-16 pY1349 Cell-Based Assay

T1 sequence (P08581 25-1390): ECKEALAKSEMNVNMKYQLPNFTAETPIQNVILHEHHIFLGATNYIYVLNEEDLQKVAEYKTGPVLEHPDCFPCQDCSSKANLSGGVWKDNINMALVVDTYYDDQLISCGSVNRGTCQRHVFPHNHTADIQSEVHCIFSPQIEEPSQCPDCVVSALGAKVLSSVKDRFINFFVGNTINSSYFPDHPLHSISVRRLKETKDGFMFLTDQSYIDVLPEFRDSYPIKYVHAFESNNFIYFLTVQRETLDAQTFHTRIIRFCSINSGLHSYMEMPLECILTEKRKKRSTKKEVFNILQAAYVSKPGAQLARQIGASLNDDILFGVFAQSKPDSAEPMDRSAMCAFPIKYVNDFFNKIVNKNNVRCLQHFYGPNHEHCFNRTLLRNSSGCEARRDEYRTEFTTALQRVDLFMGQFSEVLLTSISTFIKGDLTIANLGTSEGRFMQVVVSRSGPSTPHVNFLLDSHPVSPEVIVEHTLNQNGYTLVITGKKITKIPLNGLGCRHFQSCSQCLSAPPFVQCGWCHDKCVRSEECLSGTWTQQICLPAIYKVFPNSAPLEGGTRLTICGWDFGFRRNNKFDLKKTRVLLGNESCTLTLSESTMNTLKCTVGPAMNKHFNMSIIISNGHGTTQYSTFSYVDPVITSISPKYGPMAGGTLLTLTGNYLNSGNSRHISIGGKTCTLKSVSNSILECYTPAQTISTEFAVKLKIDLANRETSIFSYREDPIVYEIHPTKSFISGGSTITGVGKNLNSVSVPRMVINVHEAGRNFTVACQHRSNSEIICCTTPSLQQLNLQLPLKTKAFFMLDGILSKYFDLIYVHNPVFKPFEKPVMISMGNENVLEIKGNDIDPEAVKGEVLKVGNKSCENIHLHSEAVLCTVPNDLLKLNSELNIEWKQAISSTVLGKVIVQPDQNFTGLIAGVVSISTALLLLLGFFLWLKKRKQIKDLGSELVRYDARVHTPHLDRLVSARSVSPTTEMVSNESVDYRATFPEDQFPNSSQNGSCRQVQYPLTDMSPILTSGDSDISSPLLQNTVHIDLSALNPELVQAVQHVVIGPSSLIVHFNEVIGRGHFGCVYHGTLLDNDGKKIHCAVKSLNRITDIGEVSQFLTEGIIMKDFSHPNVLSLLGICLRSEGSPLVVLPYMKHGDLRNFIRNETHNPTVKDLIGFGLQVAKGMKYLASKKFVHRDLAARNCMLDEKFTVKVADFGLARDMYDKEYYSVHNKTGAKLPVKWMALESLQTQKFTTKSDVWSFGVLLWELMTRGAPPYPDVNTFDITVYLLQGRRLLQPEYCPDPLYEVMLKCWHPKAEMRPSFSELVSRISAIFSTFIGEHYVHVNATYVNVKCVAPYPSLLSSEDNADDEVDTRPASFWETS

O=c1ccn(-c2ccc(F)c(F)c2)nc1Cc1cccc(-c2ncc(OCC3CCOC3)cn2)c1 (racemic) [Example 328, rac-1-(3,4-difluorophenyl)-3-{3-[5-(tetrahydrofuran-3-ylmethoxy)pyrimidin-2-yl]benzyl}pyridazin-4(1H)-one]
pIC50: > 7.00

CC(c1cccc(-c2ncc(OC3CCNCC3)cn2)c1)c1nn(-c2cnn(C)c2)ccc1=O (racemic) [Example 334, rac-1-(1-Methyl-1H-pyrazol-4-yl)-3-(1-{3-[5-(piperidin-4-yloxy)pyrimidin-2-yl]phenyl}ethyl)pyridazin-4(1H)-one]
pIC50: > 7.00

Cn1cc(-n2ccc(=O)c(Cc3cccc(-c4ncc(OCC(O)C(F)(F)F)cn4)c3)n2)cn1 (racemic) [Example 364, rac-1-(1-methyl-1H-pyrazol-4-yl)-3-{3-[5-(3,3,3-trifluoro-2-hydroxypropoxy)pyrimidin-2-yl]benzyl}pyridazin-4(1H)-one]
pIC50: > 7.00

CC(Oc1cnc(-c2cccc(Cc3nn(-c4cnn(C)c4)ccc3=O)c2)nc1)C(C)(C)O (racemic) [Example 366, rac-3-{3-[5-(2-hydroxy-1,2-dimethylpropoxy)pyrimidin-2-yl]benzyl}-1-(1-methyl-1H-pyrazol-4-yl)pyridazin-4(1H)-one]
pIC50: > 7.00

Cn1cc(-n2ccc(=O)c(Cc3cccc(-c4ncc(OCC(O)c5ccncc5)cn4)c3)n2)cn1 (racemic) [Example 367, rac-3-(3-{5-[2-hydroxy-2-(pyridin-4-yl)ethoxy]pyrimidin-2-yl}benzyl)-1-(1-methyl-1H-pyrazol-4-yl)pyridazin-4(1H)-one]
pIC50: > 7.00

Cn1cc(-n2ccc(=O)c(Cc3cccc(-c4ncc(OCC(O)CN5CCOCC5)cn4)c3)n2)cn1 (racemic) [Example 368, rac-3-{3-[5-(2-hydroxy-3-morpholin-4-ylpropoxy)pyrimidin-2-yl]benzyl}-1-(1-methyl-1H-pyrazol-4-yl)pyridazin-4(1H)-one]
pIC50: > 7.00

Cn1cc(-n2ccc(=O)c(Cc3cccc(-c4ncc(OCC(O)CF)cn4)c3)n2)cn1 (racemic) [Example 369, rac-3-{3-[5-(3-fluoro-2-hydroxypropoxy)pyrimidin-2-yl]benzyl}-1-(1-methyl-1H-pyrazol-4-yl)pyridazin-4(1H)-one]
pIC50: > 7.00

CCOCC(O)COc1cnc(-c2cccc(Cc3nn(-c4cnn(C)c4)ccc3=O)c2)nc1 (racemic) [Example 370, rac-3-{3-[5-(3-ethoxy-2-hydroxypropoxy)pyrimidin-2-yl]benzyl}-1-(1-methyl-1H-pyrazol-4-yl)pyridazin-4(1H)-one]
pIC50: > 7.00

Cn1cc(-n2ccc(=O)c(Cc3cccc(-c4ncc(OCC(F)c5ccncc5)cn4)c3)n2)cn1 (racemic) [Example 389, rac-3-(3-{5-[2-fluoro-2-(pyridin-4-yl)ethoxy]pyrimidin-2-yl}benzyl)-1-(1-methyl-1H-pyrazol-4-yl)pyridazin-4(1H)-one]
pIC50: > 7.00

Cn1cc(-n2ccc(=O)c(Cc3cccc(-c4ncc(O[C@@H]5COC[C@@H]5F)cn4)c3)n2)cn1 (racemic) [Example 390, rac-3-(3-{5-[(cis-4-fluorotetra-hydrofuran-3-yl}oxy]pyrimidin-2-yl}benzyl)-1-(1-methyl-1H-pyrazol-4-yl)pyridazin-4(1H)-one]
pIC50: > 7.00

CCC(C)c1cnc(-c2cccc(Cc3nn(-c4cnn(C)c4)ccc3=O)c2)nc1 (racemic) [Example 408, rac-3-{3-[5-(Butan-2-yl)pyrimidin-2-yl]benzyl}-1-(1-methyl-1H-pyrazol-4-yl)pyridazin-4(1-1)-one]
pIC50: > 7.00

Cn1cc(-n2ccc(=O)c(Cc3cccc(-c4ncc(CN5CCC(F)C5)cn4)c3)n2)cn1 (racemic) [Example 431, rac-3-(3-{5-[(3-fluoropyrrolidin-1-yl)methyl]pyrimidin-2-yl}benzyl)-1-(1-methyl-1H-pyrazol-4-yl)pyridazin-4(1H)-one]
pIC50: > 7.00

Cn1cc(-n2ccc(=O)c(Cc3cccc(-c4ncc(N5CCC(O)C5)cn4)c3)n2)cn1 (racemic) [Example 440, rac-3-{3-[5-(3-Hydroxypyrrolidin-1-yl)pyrimidin-2-yl]benzyl}-1-(1-methy 1H-pyrazol-4-yl)pyridazin-4(1H)-one]
pIC50: > 7.00

Cn1cc(-n2ccc(=O)c(Cc3cccc(-c4ncc(N5CCCC(C#N)C5)cn4)c3)n2)cn1 (racemic) [Example 446, rac-1-[2-(3-{[1-(1-methyl-1H-pyrazol-4-yl)-4-oxo-1,4-dihydropyridazin-3-yl]methyl}phenyl)pyrimidin-5-yl]piperidine-3-carbonitrile]
pIC50: > 7.00

COCC1CCCN(c2cnc(-c3cccc(Cc4nn(-c5cnn(C)c5)ccc4=O)c3)nc2)C1 (racemic) [Example 449, rac-3-(3-{5-[3-(methoxymethyl)piperidin-1-yl]pyrimidin-2-yl}benzyl)-1-(1-methyl-1H-pyrazol-4-yl)pyridazin-4(1H)-one]
pIC50: > 7.00

CC1COCCN1c1cnc(-c2cccc(Cc3nn(-c4cnn(C)c4)ccc3=O)c2)nc1 (racemic) [Example 450, rac-3-{3-[5-(3-methylmorpholin-4-yl)pyrimidin-2-yl]benzyl}-1-(1-methyl-1H-pyrazol-4-yl)pyridazin-4(1H)-one]
pIC50: > 7.00

Cn1cc(-n2ccc(=O)c(Cc3cccc(-c4ncc(NCC5CCOC5)cn4)c3)n2)cn1 (racemic) [Example 455, rac-1-(1-methyl-1H-pyrazol-4-yl)-3-(3-{5-[(tetrahydro-furan-3-ylmethyl)amino]pyrimidin-2-yl}benzyl)pyridazin-4(1H)-one]
pIC50: > 7.00

Cn1cc(-n2ccc(=O)c(Cc3cccc(-c4ncc(NC(=O)C5CCCO5)cn4)c3)n2)cn1 (racemic) [Example 462, rac-N-[2-(3-{[1-(1-methyl-1H-pyrazol-4-yl)-4-oxo-1,4-dihydro-pyridazin-3-yl}methyl}phenyl)pyrimidin-5-yl]tetra-hydrofuran-2-carboxamide]
pIC50: > 7.00

Cn1cc(-n2ccc(=O)c(Cc3cccc(-c4ncc(NC(=O)CC5CCCO5)cn4)c3)n2)cn1 (racemic) [Example 464, rac-N-[2-(3-{[1-(1-methyl-1H-pyrazol-4-yl)-4-oxo-1,4-dihydro-pyridazin-3-yl]methyl}phenyl)pyrimidin-5-yl]-2-(tetrahydro-furan-2-yl)acetamide]
pIC50: 6.00 to 7.00

Cn1cc(-n2ccc(=O)c(Cc3cccc(-c4ncc(N5CCCC(F)C5)cn4)c3)n2)cn1 (racemic) [Example 468, rac-3-{3-[5-(3-fluoro-piperidin-1-yl)pyrimidin-2-yl]benzyl)-1-(1-methyl-1H-pyrazol-4-yl)pyridazin-4(1H)-one]
pIC50: > 7.00

CC1CCCN(c2cnc(-c3cccc(Cc4nn(-c5cnn(C)c5)ccc4=O)c3)nc2)C1 (racemic) [Example 469, rac-3-{3-[5-(3-methyl-piperidin-1-yl)pyrimidin-2-yl]benzyl}-1-(1-methyl-1H-pyrazol-4-yl)pyridazin-4(1H)-one]
pIC50: > 7.00

Cn1cc(-n2ccc(=O)c(Cc3cccc(-c4ncc(C(=O)NCC5COCCO5)cn4)c3)n2)cn1 (racemic) [Example 474, rac-N-(1,4-Dioxan-2-ylmethyl)-2-(3-{[1-(1-methyl-1H-pyrazol-4-yl)-4-oxo-1,4-dihydropyridazin-3-yl]methyl}phenyl)pyrimidine-5-carboxamide]
pIC50: > 7.00

Cn1cc(-n2ccc(=O)c(Cc3cccc(-c4ncc(C(=O)NCC5CCOC5)cn4)c3)n2)cn1 (racemic) [Example 475, rac-2-(3-{[1-(1-methyl-1H-pyrazol-4-yl) 4-oxo-1,4-dihydro-pyridazin-3-yl]methyl}phenyl)-N-(tetrahydro-furan-3-ylmethyl)pyrimidine-5-carboxamide]
pIC50: > 7.00

Cn1cc(-n2ccc(=O)c(Cc3cccc(-c4ncc(C(=O)NCC5COCCO5)cn4)c3)n2)cn1 (racemic) [Example 476, rac-N-(1,4-dioxan-2-ylmethyl)-2-(3-{[1-(1-methyl-1H-pyrazol-4-yl)-4-oxo-1,4-dihydro-pyridazin-3-yl]methyl}phenyl)pyrimidine-5-carboxamide]
pIC50: > 7.00

Cn1cc(-n2ccc(=O)c(Cc3cccc(-c4ncc(C(=O)NCC5CCCOC5)cn4)c3)n2)cn1 (racemic) [Example 478, rac-2-(3-{[1-(1-methyl-1H-pyrazol-4-yl)-4-oxo-1,4-dihydro-pyridazin-3-yl]methyl}phenyl)-N-tetrahydro-2H-pyran-3-ylmethyl)pyrimidine-5-carboxamide]
pIC50: > 7.00

Cn1cc(-n2ccc(=O)c(Cc3cccc(-c4ncc(C(=O)NCC5CCCO5)cn4)c3)n2)cn1 (racemic) [Example 483, rac-2-(3-{[1-(1-methyl-1H-pyrazol-4-yl)-4-oxo-1,4-dihydro-pyridazin-3-yl]methyl}phenyl)-N-(tetrahydro-furan-2-ylmethyl)pyrimidine-5-carboxamide]
pIC50: > 7.00
